In US4582851A, “Anti-bacterial 1,4-aminoalkylamino-9H-thioxanthen-9-one derivatives, compositions, and method of use therefor” (Warner-Lambert Company, priority 1985, dated 1986):
Structures can show the parent of a compound that is named as a salt.

Assays:
[1] = test system: P-388 lymphocytic leukemia; conditions: cited from earlier work
P388 = conditions: cited from earlier work
B. Subtilis = test: Inhibitory zone diameter, agar disc assay, B. subtilis; format: cell-based; conditions: Bacillus subtilis; for zone of inhibition at 100 µg/mL: Conc. 100 (mg/ml)
Description: (§1) 1. Preparation of inocula
(§2) The bacterial and yeast isolates are maintained in agar slants or in liquid media, hereby designated as inoculum media. The cultures are transferred at regular intervals in such media. (See Table for the corresponding inoculum media of each culture.) The organisms are generally transferred on to agar slants or liquid inoculum media and incubated overnight (18-20 hours): 37° C. for the bacterial isolates and 28° C. for the fungal cultures.
(§3) The microbial cells from the overnight agar slants are then scraped off and suspended in saline solution (0.85% NaCl). The microbial concentrations are adjusted to a light transmittancy of 20-35%, Junior Coleman Spectrophotometer (555M). For the organisms that are maintained in liquid media, an aliquot of the culture suspension is simply diluted with saline to 20-35% light transmittancy.
(§4) The above microbial suspension serve as inocula for the assay plates. Thus, 0.16-10 ml (see Table for exact amount) are used to inoculate 100 ml of the molten-agar assay medium.
(§5) Stainless steel frames, 12.3×25.3 cm (ID) and glass plates, 15.3×31.7 cm are used to make the test trays. The frames are attached to the plates with tape at each end and the inner edges sealed with 2% agar. Twenty five ml of inoculated assay medium is spread evenly on each tray and allowed to solidify. The trays are covered, inverted, and refrigerated until used.
(§6) The compounds or samples to be tested are dissolved in suitable solvents, e.g., alcohols, dimethylsulfoxide, or N,N-dimethylformamide. The samples are generally dissolved so that the final concentration of the solvent is <10%.* The compounds are tested at different concentrations: 3,000; 1,000; 500; 100; and 10 mcg/ml. Paper discs (12.7 mm diameter) are placed on the agar trays with forceps, then 0.08 ml of the dissolved compound is pipetted onto each disc using a 0.2 ml pipette.
(§7) The disked agar trays are incubated overnight (18-20 hours) at 37° C. for the bacterial cultures and 28° C. for the yeasts. […] The diameter of the zone is measured in mm. […]

S. Faeculic = test: Inhibitory zone diameter, agar disc assay, S. faecalis; format: cell-based, Streptococcus faecalis; conditions: Enterococcus faecalis
Description: as §1, §2, §3, §4, §5, §6, §7

N. Catarrhali = test: Inhibitory zone diameter, agar disc assay, N. catarrhali; format: cell-based; conditions: Conc. 100 (mg/ml)
Description: as §1, §2, §3, §4, §5, §6, §7

A. Viscolacti = test: Inhibitory zone diameter, agar disc assay, A. viscolacti; format: cell-based; conditions: read-out: Inhibitory Zone Diameter, A. viscolacti
Description: as §1, §2, §3, §4, §5, §6, §7

[2] = test system: lymphocytic leukemia P388; test: P388 in vivo lymphocytic leukemia test; parameters: species or system male or female CD2 F1 mice; conditions: for P388 in vivo T/C × 100: two single doses, four-day interval; for Number of animals surviving 30 days and considered "cured": six to seven animals per group
Description: The in vivo lymphocytic leukemia P388 test is carried out by the United States National Cancer Institute. The animals used are either male or female CD2 F1 mice. There are six to seven animals per test group. The tumor transplant is by intraperitoneal injection of dilute ascitic fluid containing cells of lymphocytic leukemia P388. The test compounds are administered intraperitoneally in two single doses with a four-day interval between doses at various dose levels following tumor inoculation. The animals are weighed and survivors are recorded on a regular basis for 30 days. A ratio of survival time for treated (T)/control (C) animals is calculated. The criterion for efficacy is T/C×100>125%. The positive control compound in this test is 1,4-dihydroxy-5,8-[bis[[2-[(2-hydroxyethyl)amino]-ethyl]]amino]-9,10-anthracenedione given at dosages ranging from 12.0 to 0.075 mg/kg. See Cancer Chemotherapy Reports, Part 3, 3, 1 (1972) for a comprehensive discussion of the protocol.

E. coli = test: Inhibitory zone diameter, agar disc assay, E. coli; format: cell-based, Escherichia coli
Description: as §1, §2, §3, §4, §5, §6, §7

L1210 cells = test: L1210 in vitro (murine leukemia cell growth); format: cell-based; conditions: Mus musculus, L1210, 72 h; 3 days, 37° C., 5% CO2; read-out: L1210 in vitro ID50
Description: A test protocol uses L1210 cells, a murine leukemia cell line, grown in RPMI 1640 supplemented with 5% fetal bovine serum and gentamicin (50 μg/ml). Drug dilutions are prepared in the appropriate solvent and 20 μl of each dilution are added to 24-well Linbro tissue culture plates, followed by the addition of 2.0 ml of cell suspension containing 3×10^4 cells per ml. Solvent and medium controls are included in each test. After incubation at 37° C. for three days in 5% CO2, the contents of each well are removed and the cells counted in a ZBI Coulter counter. Percent growth are calculated relative to the controls and the levels of drug activity are expressed as ID50 in moles per liter.

[3] = test system: HCT-8 (human colon adenocarcinoma) cells; test: HCT-8 in vitro (human colon adenocarcinoma); format: cell-based; conditions: 60-65 hrs at 37° C., read-out: HCT-8 in vitro ID50
Description: In addition to their usefulness as antibiotic and antifungal agents and as antileukemic agents, certain of the compounds of the invention display in vitro activity against solid tumors when tested by the following procedure.
HCT-8 (human colon adenocarcinoma) cells are trypsinized using Trypsin-EDTA. A single cell suspension is achieved by passing the cells through a 26 gauge needle with a 20 cc syringe. A cell suspension is prepared using RPMI 1640 growth medium (available from Gibco Laboratories)+10% fetal calf serum+50 μg/ml garamycin with a cell concentration of approximately 30,000 cells/ml. The cell suspension is dispensed in Linbro 24-well plates; 1 ml/well. The plates are incubated for approximately 48 hrs at 37° C. in a 5% CO2 atmosphere. At this time test compounds are added in the appropriate concentration. Five μl of the 200 μg/ml stock solution is added to each well in a primary test. Ten μl of the appropriate dilution is added to each well for a titration test. The plates are reincubated an additional 60-65 hrs at 37° C. in a 5% CO2 atmosphere. The test is read by lysing the cells using a mix of cationic surfactant, glacial acetic acid and sodium chloride. Two ml of the lysed cell suspension from each well is added to 8 ml of diluent. Each sample is read with a Coulter counter (ZBI model). The activity of each sample is measured as a percentage of the controls and the data is reported as ID50, that is the molar quantity of drug required to kill 50% of the tumor cells.

tumor = conditions: cited from earlier work
[4] = 12.5 mg/kg i.p. (printed 125 for Example 1)

## Cc1ccc(NCCNCCO)c2c(=O)c3ccccc3sc12
[1]
  activity against the P-388 lymphocytic leukemia: inactive

## Cc1ccc(NCCN(C)C)c2c(=O)c3ccccc3sc12
[1]
  activity against the P-388 lymphocytic leukemia: inactive

## CCN(CC)CCNc1ccc(C)c2sc3ccc(O)cc3c(=O)c12 [7-hydroxy analog of lucanthone]
P388
  in vivo P388 activity: shown to have in vivo P388 activity

## CN(C)CCNc1ccc(NCCNCCO)c2sc3ccccc3c(=O)c12.Cl.Cl.Cl [Example 1, 1-[[2-(Dimethylamino)ethyl]amino]-4-[[2-[(2-hydroxyethyl)amino]ethyl]amino]-9H-thioxanthen-9-one trihydrochloride]
B. Subtilis
  zone of inhibition at 100 µg/mL: 19 mm
S. Faeculic; Conc. 1600 (mg/ml)
  zone of inhibition at 1600 µg/mL: 19 mm
N. Catarrhali
  zone of inhibition at 100 µg/mL: 21 mm
A. Viscolacti
  zone of inhibition at 100000 µg/mL: 17 mm
[2]; [4]
  P388 in vivo T/C × 100: 190%
[2]; 25 mg/kg i.p.
  P388 in vivo T/C × 100: 236%
  Number of animals surviving 30 days and considered "cured": 1
E. coli; Escherichia coli, read-out: Inhibitory Zone Diameter, E. coli
  zone of inhibition at 3 g/mL: 17 mm

## CCN(CC)CCNc1ccc(N)c2sc3ccccc3c(=O)c12 [Example 1c]
[1]
  activity against the P-388 lymphocytic leukemia: inactive

## CN(C)CCNc1ccc(NCCN)c2sc3ccccc3c(=O)c12 [Example 2, 4-[(2-Aminoethyl)amino]-1-[[2-(dimethylamino)ethyl]amino]-9H-thioxanthen-9-one, hydrochloride]
B. Subtilis
  zone of inhibition at 100 µg/mL: 16 mm
S. Faeculic; Conc. 500 (mg/ml)
  zone of inhibition at 500 µg/mL: 14 mm
N. Catarrhali
  zone of inhibition at 100 µg/mL: 20 mm
A. Viscolacti
  zone of inhibition at 100000 µg/mL: 23 mm
[2]; [4]
  P388 in vivo T/C × 100: 187%
[2]; 25 mg/kg i.p.
  P388 in vivo T/C × 100: 212%
  Number of animals surviving 30 days and considered "cured": 1
E. coli; Escherichia coli, Conc. 1000 (mg/ml)
  zone of inhibition at 1000 µg/mL: 14 mm

## CN(C)CCNc1ccc(NCCCN)c2sc3ccccc3c(=O)c12.Cl.Cl.Cl [Example 3, 4-[(3-Aminopropyl)amino]-1-[[2-(dimethylamino)ethyl]amino]-9H-thioxanthen-9-one, trihydrochloride]
B. Subtilis; Conc. 1000 (mg/ml)
  zone of inhibition at 1000 µg/mL: 16 mm
S. Faeculic; Conc. 3000 (mg/ml)
  zone of inhibition at 3000 µg/mL: 18 mm
N. Catarrhali
  zone of inhibition at 100 µg/mL: 24 mm
A. Viscolacti
  zone of inhibition at 100000 µg/mL: 14 mm
[2]; 25 mg/kg i.p.
  P388 in vivo T/C × 100: 125%
E. coli; concentration not given
  Inhibitory Zone Diameter, E. coli: 0 mm

## CN(C)CCNc1ccc([N+](=O)[O-])c2sc3ccccc3c(=O)c12 [Example 4, 1-[[2-(dimethylamino)ethyl]amino]-4-nitro-9H-thioxanthen-9-one]
L1210 cells
  IC50: 120 nM
[3]
  IC50: 270 nM

## CCN(CC)CCNc1ccc([N+](=O)[O-])c2sc3cc(OC)ccc3c(=O)c12 [Example 5 NH(CH2)2 NEt2 6-OMe]
L1210 cells
  IC50: 1200 nM
[2]; 100 mg/kg i.p.
  P388 in vivo T/C × 100: 104%
[3]
  IC50: 1100 nM

## CN(C)CCNc1ccc([N+](=O)[O-])c2sc3ccc(O)cc3c(=O)c12 [Example 5 NH(CH2)2 NMe2 7-OH, 1-[[2-(Dimethylamino)ethyl]amino]-7-hydroxy-4-nitro-9H-thioxanthen-9-one]
L1210 cells
  IC50: 6.5 nM

## COc1ccc2sc3c([N+](=O)[O-])ccc(NCCN(C)C)c3c(=O)c2c1 [Example 5 NH(CH2)2 NMe2 7-OMe, 1-[[2-(Dimethylamino)ethyl]amino]-7-methoxy-4-nitro-9H-thioxanthen-9-one]
L1210 cells
  IC50: 250 nM
[2]; 100 mg/kg i.p.
  P388 in vivo T/C × 100: 178%
[3]
  IC50: 1000 nM

## CN(C)CCCNc1ccc([N+](=O)[O-])c2sc3ccccc3c(=O)c12 [Example 5 NH(CH2)3 NMe2 H, 1-[[3-(dimethylamino)propyl]amino]-4-nitro-9H-thioxanthen-9-one]
L1210 cells
  IC50: 96 nM
[2]; 50 mg/kg i.p.
  P388 in vivo T/C × 100: 190%
[3]
  IC50: 460 nM

## CCN(CC)CCNc1ccc(CO)c2sc3ccccc3c(=O)c12 [hycanthone]
tumor
  Experimental antitumor activity: Experimental antitumor activity has been reported

## CCN(CC)CCNc1ccc(C)c2sc3ccccc3c(=O)c12 [lucanthone]
tumor
  Experimental antitumor activity: Experimental antitumor activity has been reported
